Legend:
[1] = test system: cardiac allograft; conditions: rats; survival doubled from day 7; cited from earlier work
[2] = target: dipeptidyl peptidase-IV enzyme (DPP-4) (Homo sapiens (Human), UniProt P27487); assay: continuous fluorometric assay with substrate Gly-Pro-AMC (DPP-4 inhibition); assay type: biochemical; conditions: soluble human DPP-4, 50 μM Gly-Pro-AMC, pH 7.5, room temperature
Description: Inhibition constants are determined as follows. A continuous fluorometric assay is employed with the substrate Gly-Pro-AMC, which is cleaved by DPP-4 to release the fluorescent AMC leaving group. […] A typical reaction contains approximately 50 pM enzyme, 50 μM Gly-Pro-AMC, and buffer (100 mM HEPES, pH 7.5, 0.1 mg/ml BSA) in a total reaction volume of 100 μL. Liberation of AMC is monitored continuously in a 96-well plate fluorometer using an excitation wavelength of 360 nm and an emission wavelength of 460 nm. Under these conditions, approximately 0.8 μM AMC is produced in 30 minutes at 25 degrees C. The enzyme used in these studies was soluble (transmembrane domain and cytoplasmic extension excluded) human protein produced in a baculovirus expression system (Bac-To-Bac, Gibco BRL). […] To measure the dissociation constants for compounds, solutions of inhibitor in DMSO were added to reactions containing enzyme and substrate (final DMSO concentration is 1%). All experiments were conducted at room temperature using the standard reaction conditions described above. To determine the dissociation constants (Ki), reaction rates were fit by non-linear regression to the Michaelis-Menton equation for competitive inhibition.

[3] = target: DPP-4 (Homo sapiens (Human), UniProt P27487); conditions: cited from earlier work
[4] = test system: hematopoiesis; conditions: mouse, cyclophosphamide-induced neutropenia; cited from earlier work

Chain of dipeptidyl peptidase-IV enzyme (DPP-4) (P27487 29-766): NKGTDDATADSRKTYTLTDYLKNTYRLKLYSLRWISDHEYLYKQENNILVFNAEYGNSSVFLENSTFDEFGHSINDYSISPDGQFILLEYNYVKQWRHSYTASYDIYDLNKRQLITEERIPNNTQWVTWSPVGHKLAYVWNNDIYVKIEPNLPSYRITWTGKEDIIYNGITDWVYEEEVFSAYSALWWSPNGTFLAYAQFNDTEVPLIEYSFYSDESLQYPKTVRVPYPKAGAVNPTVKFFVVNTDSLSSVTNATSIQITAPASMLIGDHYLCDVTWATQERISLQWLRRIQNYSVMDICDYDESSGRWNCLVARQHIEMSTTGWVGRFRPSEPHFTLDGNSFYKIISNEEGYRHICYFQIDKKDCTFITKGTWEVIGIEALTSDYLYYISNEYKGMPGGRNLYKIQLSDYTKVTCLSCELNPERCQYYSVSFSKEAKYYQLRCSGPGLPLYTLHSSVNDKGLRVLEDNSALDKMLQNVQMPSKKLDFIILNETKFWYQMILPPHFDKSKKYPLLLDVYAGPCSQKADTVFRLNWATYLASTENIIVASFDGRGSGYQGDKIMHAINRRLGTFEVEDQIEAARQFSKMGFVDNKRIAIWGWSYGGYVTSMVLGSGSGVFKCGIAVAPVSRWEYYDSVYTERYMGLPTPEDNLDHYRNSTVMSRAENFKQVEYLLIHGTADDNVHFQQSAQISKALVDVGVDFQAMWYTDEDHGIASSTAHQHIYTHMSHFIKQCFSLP
Chain of DPP-4 (P27487 39-766, species assumed): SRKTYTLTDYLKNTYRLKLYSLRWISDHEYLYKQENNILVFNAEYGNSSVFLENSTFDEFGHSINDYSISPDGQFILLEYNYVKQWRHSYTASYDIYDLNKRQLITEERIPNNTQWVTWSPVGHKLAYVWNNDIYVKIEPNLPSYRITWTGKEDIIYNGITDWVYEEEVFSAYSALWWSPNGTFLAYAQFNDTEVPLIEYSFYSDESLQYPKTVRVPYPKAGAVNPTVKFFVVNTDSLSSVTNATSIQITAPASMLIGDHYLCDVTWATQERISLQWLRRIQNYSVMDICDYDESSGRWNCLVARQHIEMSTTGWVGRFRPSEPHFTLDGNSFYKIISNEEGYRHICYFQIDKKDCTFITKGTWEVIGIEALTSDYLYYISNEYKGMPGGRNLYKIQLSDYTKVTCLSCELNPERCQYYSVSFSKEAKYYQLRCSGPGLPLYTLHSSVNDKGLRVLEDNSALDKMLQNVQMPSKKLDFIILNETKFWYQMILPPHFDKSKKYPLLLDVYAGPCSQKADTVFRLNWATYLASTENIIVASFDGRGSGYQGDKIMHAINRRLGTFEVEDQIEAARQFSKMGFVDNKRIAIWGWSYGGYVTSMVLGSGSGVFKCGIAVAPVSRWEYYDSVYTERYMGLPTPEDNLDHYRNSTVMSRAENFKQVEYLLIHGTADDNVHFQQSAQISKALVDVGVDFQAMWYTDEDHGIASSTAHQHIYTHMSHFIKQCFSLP

SMILES | IC50 [2] [µM] | further results
CC(C)N1CCC(c2ccccc2)(c2ccccc2)CC1 [Prodipine, Pro-Pro-diphenyl-phosphonate] |  | cardiac allograft survival [1]: 14 day
CC[C@H](C)[C@H](N)C(=O)N1CCC[C@H]1C(=O)N[C@H](C(=O)O)[C@@H](C)CC [diprotin A] |  | degradation of GRF to GRF[3-44] in plasma [3]: prevented
CC(C)[C@H](N)C(=O)N1CCC[C@H]1B(O)O [Val-Boro-Pro] |  | hematopoiesis [4]: stimulated hematopoiesis
C[C@]1(N2Cc3cn(S(=O)(=O)NC(=O)OCc4ccccc4)nc3C2)CO[C@H](c2cc(F)ccc2F)[C@@H](N)C1 [Example 4] | 0.0088 | 

The next lines start with results.

IC50 [2] [µM] | SMILES | further results
0.037 | C[C@]1(N2Cc3cn(S(C)(=O)=O)nc3C2)CO[C@H](c2cc(F)ccc2F)[C@@H](N)C1 [Example 3] | 
0.0185 | Cc1ccc(S(=O)(=O)N=S(C)(=O)n2cc3c(n2)CN([C@H]2CO[C@H](c4cc(F)ccc4F)[C@@H](N)C2)C3)cc1 (stereo partly drawn) [Example 1] | 
